Measurements published in patent EP0497921B1, “METHOD FOR INHIBITING ENZYMATIC SYNTHESIS OF NUCLEIC ACIDS USING ISOPSORALENS” (ISAACS, Stephen T., priority 1989, dated 1991).

Test system: HIV 115-mer
Test: PCR sterilization with pre-irradiated compound (photoproduct) added to PCR product
Format: biochemical
Description: AMDMIP photoproduct was made by irradiating AMDMIP (using the CE-III device) in 1 x Taq buffer (50 mM KCL, 2.5 mM MgCl2, 10 mM Tris, pH 8.5, 200 µg/ml gelatin) in a separate vessel for 15 minutes at room temperature (RT). Aliquots of AMDMIP photoproduct and the unirradiated compound were added (by pipetting) at 50, 100, 200 and 300 µg/ml to 1 µl aliquots of a 10^6 dilution of PCR product copies. PCR product was provided by a) preparing template, b) providing template, c) providing PCR reagents, d) providing polymerase, e) mixing PCR reagents, template, and polymerase to initiate PCR, f) cycling to synthesize PCR product. Step a): Template Preparation. The templates were derived from actual patient samples. Ficoll-Hypaque separated peripheral blood mononuclear cells (PBMCs) are prepared from individuals enrolled in a longitudinal AIDS study. Approximately 1 X 10^6 cells are added to 10 ml of RPMI containing 10% fetal calf serum. The cells are pelleted by centrifugation at 200 x g for 5 minutes and washed twice with 10 ml PBS. […]
Again, to evaluate the efficacy of this method of sterilization, a subsequent polymerase chain reaction was carried out for 30 cycles in the presence of α-^32P-dCTP. PCR product was then quantitated by running gels (see above), cutting the bands (detected by autoradiography) and counting the bands on a commercial scintillation counter. […]

**Q.** Which results are given for “4'-Aminomethyl-4,5'-dimethylisopsoralen [AMDMIP]”?
**A.** sterilization of PCR (30 cycles, autoradiography) (unirradiated AMDMIP at the same concentration as the photoproduct): PCR product is clearly evident; sterilization of PCR (30 cycles, autoradiography) (unirradiated compound at 50, 100, 200 and 300 µg/ml): no sterilization
